# From patent US20260102472A1, “SEMAGLUTIDE IN MEDICAL THERAPY” (Novo Nordisk A/S, priority 2023, published 2026)
# Test system: human subjects with established cardiovascular (CV) disease and obesity or overweight
# Experiment: Randomised, double-blind, placebo-controlled clinical trial of semaglutide in established cardiovascular disease and obesity or overweight (Example 3)
# Format: in vivo
# Conditions: for Heart failure leading to hospitalisation, Treatment Hazard ratio vs. placebo / Heart failure leading to hospitalisation, Events / Heart failure leading to hospitalisation, Events (%): baseline to end-of-trial (mean duration 39.8 months), 2.4 mg once weekly
# Experimental: A randomised, double-blind, international multicentre, placebo-controlled clinical trial with semaglutide was carried out with 17604 human subjects with established cardiovascular (CV) disease and obesity or overweight.
# Key inclusion criteria were at least 45 years of age, BMI of at least 27 kg/m^2 and established (CV) disease. Key exclusion criteria were type 1 diabetes or type 2 diabetes.
# Subjects were randomised in a 1:1 manner to receive either 2.4 mg semaglutide or placebo once weekly as add-on to standard of care. After randomization, a 16-week dose escalation period followed and then an event driven maintenance period with a mean (+SD) duration of exposure to semaglutide or placebo in the overall trial population of 34.2 (±13.7) months (33.3 (±14.4) months for semaglutide and 35.1 (±13.0) months for placebo). Subjects administered semaglutide initiated treatment with a once-weekly dose of 0.25 mg and followed a fixed dose escalation regimen, with dose increase every 4 weeks (through dosages of 0.5, 1.0, 1.7 mg once weekly), until the 2.4 mg once weekly maintenance dose was reached after 16 weeks.
# Results from the clinical trial are presented in Tables 19-20 based on 8803 and 8801 subjects randomised to semaglutide and placebo, respectively. Results from the chronic heart failure (HF) population of the clinical trial are presented in Tables 21-22 based on 2155 and 2131 chronic HF subjects randomised to semaglutide and placebo, respectively. Heart failure leading to hospitalisation was defined as hospital admission for at least 24 hours with a primary diagnosis of heart failure with documented new or worsening symptoms due to heart failure; and objective evidence of new or worsening heart failure (physical findings and/or laboratory evidence or invasive diagnostic evidence); and increased/initiated appropriate treatment. Estimated hazard ratios relative to placebo and two-sided p-values were obtained from a Cox proportional hazards model with randomised treatment as a fixed factor. CI: Confidence interval.
# [1] = subjects with chronic HF only (2155)
substance,measurement,setting,value
"N-epsilon26-[2-(2-{2-[2-(2-{2-[(S)-4-Carboxy-4-(17-carboxyheptadecanoyl-amino) butyrylamino]ethoxy}ethoxy) acetylamino]ethoxy}ethoxy) acetyl] [Aib8,Arg34] GLP-1-(7-37) [Semaglutide]","Heart failure leading to hospitalisation, Treatment Hazard ratio vs. placebo",,0.79
same,"Heart failure leading to hospitalisation, Events",8803 subjects,97
same,"Heart failure leading to hospitalisation, Events (%)",8803 subjects,1.1%
same,"Heart failure leading to hospitalisation, Treatment Hazard ratio vs. placebo",listed as semaglutide,achieved a reduction
same,Reduction for CV death compared with placebo,"patients with chronic heart failure, statistically significant",24%
same,"Heart failure leading to hospitalisation, Events",[1],61
same,"Heart failure leading to hospitalisation, Events (%)",[1],2.8%
same,"Heart failure leading to hospitalisation, Treatment Hazard ratio vs. placebo",subjects with chronic HF only,0.86
same,"Heart failure leading to hospitalisation, Treatment Hazard ratio vs. placebo","subjects with chronic HF only, listed as semaglutide",achieved a reduction
